According to PubChem BioAssay (NCI):
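The compound was tested at five concentrations on cells cultured in 96-well plates, with a 48-hour exposure period. TGI marks complete inhibition of growth.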

What was measured:
Test in all cases: NCI anticancer screen, dose series, 48 h
786-0 renal = system: 786-0 renal
A498 renal = system: A498 renal
A549 NSCLC = system: A549 NSCLC
ACHN renal = system: ACHN renal
BT-549 breast = system: BT-549 breast
CAKI-1 renal = system: CAKI-1 renal
CCRF-CEM leukemia = system: CCRF-CEM leukemia
DU-145 prostate = system: DU-145 prostate
EKVX NSCLC = system: EKVX NSCLC
HCT-116 colon = system: HCT-116 colon
HCT-15 colon = system: HCT-15 colon
HL-60(TB) leukemia = system: HL-60(TB) leukemia
HOP-62 NSCLC = system: HOP-62 NSCLC
HOP-92 NSCLC = system: HOP-92 NSCLC
HS 578T breast = system: HS 578T breast
HT29 colon = system: HT29 colon
IGROV1 ovarian = system: IGROV1 ovarian
K-562 leukemia = system: K-562 leukemia
KM12 colon = system: KM12 colon
LOX IMVI melanoma = system: LOX IMVI melanoma
M14 melanoma = system: M14 melanoma
MALME-3M melanoma = system: MALME-3M melanoma
MCF7 breast = system: MCF7 breast
MDA-MB-231 breast = system: MDA-MB-231 breast
MDA-MB-435 = system: MDA-MB-435
MDA-N = system: MDA-N
MOLT-4 leukemia = system: MOLT-4 leukemia
NCI-H226 lung = system: NCI-H226 lung
NCI-H23 lung = system: NCI-H23 lung
NCI-H460 lung = system: NCI-H460 lung
NCI-H522 lung = system: NCI-H522 lung
NCI/ADR-RES ovarian = system: NCI/ADR-RES ovarian
OVCAR-3 ovarian = system: OVCAR-3 ovarian
OVCAR-4 ovarian = system: OVCAR-4 ovarian
OVCAR-5 ovarian = system: OVCAR-5 ovarian
OVCAR-8 ovarian = system: OVCAR-8 ovarian
PC-3 prostate = system: PC-3 prostate
RPMI-8226 leukemia = system: RPMI-8226 leukemia
RXF 393 renal = system: RXF 393 renal
SF-268 CNS = system: SF-268 CNS
SF-295 CNS = system: SF-295 CNS
SF-539 CNS = system: SF-539 CNS
SK-MEL-2 melanoma = system: SK-MEL-2 melanoma
SK-MEL-28 melanoma = system: SK-MEL-28 melanoma
SK-MEL-5 melanoma = system: SK-MEL-5 melanoma
SK-OV-3 ovarian = system: SK-OV-3 ovarian
SN12C renal = system: SN12C renal
SNB-19 CNS = system: SNB-19 CNS
SNB-75 CNS = system: SNB-75 CNS
SR leukemia = system: SR leukemia
SW-620 colon = system: SW-620 colon
T-47D breast = system: T-47D breast
TK-10 renal = system: TK-10 renal
U251 CNS = system: U251 CNS
UACC-257 melanoma = system: UACC-257 melanoma
UACC-62 melanoma = system: UACC-62 melanoma
COLO 205 colon = system: COLO 205 colon
HCC-2998 colon = system: HCC-2998 colon
UO-31 renal = system: UO-31 renal

CN1CCc2c(sc3ncn(N)c(=N)c23)C1
TGI (786-0 renal): > 100 µM
TGI (A498 renal): > 100 µM
TGI (A549 NSCLC): > 100 µM
TGI (ACHN renal): > 100 µM
TGI (BT-549 breast): > 100 µM
TGI (CAKI-1 renal): > 100 µM
TGI (CCRF-CEM leukemia): > 100 µM
TGI (DU-145 prostate): > 100 µM
TGI (EKVX NSCLC): > 100 µM
TGI (HCT-116 colon): > 100 µM
TGI (HCT-15 colon): > 100 µM
TGI (HL-60(TB) leukemia): > 100 µM
TGI (HOP-62 NSCLC): > 100 µM
TGI (HOP-92 NSCLC): > 100 µM
TGI (HS 578T breast): > 100 µM
TGI (HT29 colon): > 100 µM
TGI (IGROV1 ovarian): > 100 µM
TGI (K-562 leukemia): > 100 µM
TGI (KM12 colon): > 100 µM
TGI (LOX IMVI melanoma): > 100 µM
TGI (M14 melanoma): > 100 µM
TGI (MALME-3M melanoma): > 100 µM
TGI (MCF7 breast): > 100 µM
TGI (MDA-MB-231 breast): > 100 µM
TGI (MDA-MB-435): > 100 µM
TGI (MDA-N): > 100 µM
TGI (MOLT-4 leukemia): > 100 µM
TGI (NCI-H226 lung): > 100 µM
TGI (NCI-H23 lung): > 100 µM
TGI (NCI-H460 lung): > 100 µM
TGI (NCI-H522 lung): > 100 µM
TGI (NCI/ADR-RES ovarian): > 100 µM
TGI (OVCAR-3 ovarian): > 100 µM
TGI (OVCAR-4 ovarian): > 100 µM
TGI (OVCAR-5 ovarian): > 100 µM
TGI (OVCAR-8 ovarian): > 100 µM
TGI (PC-3 prostate): > 100 µM
TGI (RPMI-8226 leukemia): > 100 µM
TGI (RXF 393 renal): > 100 µM
TGI (SF-268 CNS): > 100 µM
TGI (SF-295 CNS): > 100 µM
TGI (SF-539 CNS): > 100 µM
TGI (SK-MEL-2 melanoma): > 100 µM
TGI (SK-MEL-28 melanoma): > 100 µM
TGI (SK-MEL-5 melanoma): > 100 µM
TGI (SK-OV-3 ovarian): > 100 µM
TGI (SN12C renal): > 100 µM
TGI (SNB-19 CNS): > 100 µM
TGI (SNB-75 CNS): > 100 µM
TGI (SR leukemia): > 100 µM
TGI (SW-620 colon): > 100 µM
TGI (T-47D breast): > 100 µM
TGI (TK-10 renal): > 100 µM
TGI (U251 CNS): > 100 µM
TGI (UACC-257 melanoma): > 100 µM
TGI (UACC-62 melanoma): > 100 µM

COc1ccc(C=Nc2c(O)ccc3ccccc23)cc1OC
TGI (786-0 renal): > 100 µM
TGI (A498 renal): > 100 µM
TGI (A549 NSCLC): > 100 µM
TGI (ACHN renal): > 100 µM
TGI (BT-549 breast): > 100 µM
TGI (CAKI-1 renal): > 100 µM
TGI (CCRF-CEM leukemia): > 100 µM
TGI (COLO 205 colon): > 100 µM
TGI (DU-145 prostate): > 100 µM
TGI (EKVX NSCLC): > 100 µM
TGI (HCC-2998 colon): > 100 µM
TGI (HCT-116 colon): > 100 µM
TGI (HCT-15 colon): > 100 µM
TGI (HL-60(TB) leukemia): > 100 µM
TGI (HOP-62 NSCLC): > 100 µM
TGI (HOP-92 NSCLC): 59 µM
TGI (HS 578T breast): > 100 µM
TGI (HT29 colon): > 100 µM
TGI (IGROV1 ovarian): > 100 µM
TGI (K-562 leukemia): > 100 µM
TGI (KM12 colon): > 100 µM
TGI (LOX IMVI melanoma): > 100 µM
TGI (M14 melanoma): > 100 µM
TGI (MALME-3M melanoma): 41.2 µM
TGI (MCF7 breast): > 100 µM
TGI (MDA-MB-231 breast): > 100 µM
TGI (MDA-MB-435): 33.4 µM
TGI (MDA-N): 35.1 µM
TGI (NCI-H226 lung): > 100 µM
TGI (NCI-H23 lung): > 100 µM
TGI (NCI-H460 lung): > 100 µM
TGI (NCI-H522 lung): 64.2 µM
TGI (NCI/ADR-RES ovarian): > 100 µM
TGI (OVCAR-3 ovarian): 70.9 µM
TGI (OVCAR-4 ovarian): > 100 µM
TGI (OVCAR-5 ovarian): > 100 µM
TGI (OVCAR-8 ovarian): > 100 µM
TGI (PC-3 prostate): > 100 µM
TGI (RPMI-8226 leukemia): > 100 µM
TGI (RXF 393 renal): > 100 µM
TGI (SF-268 CNS): > 100 µM
TGI (SF-295 CNS): > 100 µM
TGI (SF-539 CNS): > 100 µM
TGI (SK-MEL-2 melanoma): > 100 µM
TGI (SK-MEL-28 melanoma): > 100 µM
TGI (SK-MEL-5 melanoma): > 100 µM
TGI (SK-OV-3 ovarian): > 100 µM
TGI (SN12C renal): > 100 µM
TGI (SNB-19 CNS): > 100 µM
TGI (SNB-75 CNS): > 100 µM
TGI (SR leukemia): > 100 µM
TGI (SW-620 colon): > 100 µM
TGI (T-47D breast): > 100 µM
TGI (TK-10 renal): > 100 µM
TGI (U251 CNS): > 100 µM
TGI (UACC-257 melanoma): > 100 µM
TGI (UACC-62 melanoma): > 100 µM
TGI (UO-31 renal): > 100 µM

CC(C)c1cc(C(F)(F)F)nc(NNc2nc(C(C)C)cc(C(F)(F)F)n2)n1
TGI (786-0 renal): > 100 µM
TGI (A498 renal): > 100 µM
TGI (A549 NSCLC): > 100 µM
TGI (ACHN renal): > 100 µM
TGI (BT-549 breast): > 100 µM
TGI (CAKI-1 renal): > 100 µM
TGI (CCRF-CEM leukemia): > 100 µM
TGI (COLO 205 colon): > 100 µM
TGI (DU-145 prostate): > 100 µM
TGI (EKVX NSCLC): > 100 µM
TGI (HCT-116 colon): > 100 µM
TGI (HCT-15 colon): > 100 µM
TGI (HL-60(TB) leukemia): > 100 µM
TGI (HOP-62 NSCLC): 86.4 µM
TGI (HOP-92 NSCLC): > 100 µM
TGI (HS 578T breast): > 100 µM
TGI (HT29 colon): > 100 µM
TGI (IGROV1 ovarian): > 100 µM
TGI (K-562 leukemia): > 100 µM
TGI (KM12 colon): > 100 µM
TGI (M14 melanoma): > 100 µM
TGI (MALME-3M melanoma): > 100 µM
TGI (MCF7 breast): > 100 µM
TGI (MDA-MB-231 breast): > 100 µM
TGI (MDA-MB-435): > 100 µM
TGI (MDA-N): > 100 µM
TGI (MOLT-4 leukemia): > 100 µM
TGI (NCI-H226 lung): > 100 µM
TGI (NCI-H23 lung): > 100 µM
TGI (NCI-H460 lung): > 100 µM
TGI (NCI-H522 lung): > 100 µM
TGI (NCI/ADR-RES ovarian): > 100 µM
TGI (OVCAR-3 ovarian): 85.5 µM
TGI (OVCAR-4 ovarian): > 100 µM
TGI (OVCAR-5 ovarian): > 100 µM
TGI (OVCAR-8 ovarian): > 100 µM
TGI (PC-3 prostate): > 100 µM
TGI (RPMI-8226 leukemia): > 100 µM
TGI (RXF 393 renal): > 100 µM
TGI (SF-268 CNS): > 100 µM
TGI (SF-295 CNS): > 100 µM
TGI (SF-539 CNS): > 100 µM
TGI (SK-MEL-2 melanoma): > 100 µM
TGI (SK-MEL-28 melanoma): > 100 µM
TGI (SK-MEL-5 melanoma): > 100 µM
TGI (SK-OV-3 ovarian): > 100 µM
TGI (SN12C renal): > 100 µM
TGI (SNB-19 CNS): > 100 µM
TGI (SNB-75 CNS): 95.8 µM
TGI (SR leukemia): > 100 µM
TGI (SW-620 colon): > 100 µM
TGI (T-47D breast): > 100 µM
TGI (TK-10 renal): 56.1 µM
TGI (U251 CNS): > 100 µM
TGI (UACC-257 melanoma): > 100 µM
TGI (UACC-62 melanoma): > 100 µM
TGI (UO-31 renal): > 100 µM
